Activity calls are given as the source filed them. The calls are words filed in the database; no cut-off is given here.
How the values were obtained:
[1] = target: T1, Protein cereblon/E3 ubiquitin-protein ligase XIAP (Homo sapiens) (UniProt P98170+Q96SW2); assay: PROTAC activity at CRBN/XIAP in human MCF7 cells assessed as induction of XIAP degradation at 0.1 uM measured after 18 hrs by western blot analysis; format: cell-based
[2] = target: T2, Protein cereblon/Baculoviral IAP repeat-containing protein 3 (Homo sapiens) (UniProt Q13489+Q96SW2); assay: PROTAC activity at CRBN/cIAP2 in human MCF7 cells assessed as induction of cIAP2 degradation at 0.1 uM measured after 18 hrs by western blot analysis; format: cell-based
T2 sequence (Q13489 whole entry, looked up): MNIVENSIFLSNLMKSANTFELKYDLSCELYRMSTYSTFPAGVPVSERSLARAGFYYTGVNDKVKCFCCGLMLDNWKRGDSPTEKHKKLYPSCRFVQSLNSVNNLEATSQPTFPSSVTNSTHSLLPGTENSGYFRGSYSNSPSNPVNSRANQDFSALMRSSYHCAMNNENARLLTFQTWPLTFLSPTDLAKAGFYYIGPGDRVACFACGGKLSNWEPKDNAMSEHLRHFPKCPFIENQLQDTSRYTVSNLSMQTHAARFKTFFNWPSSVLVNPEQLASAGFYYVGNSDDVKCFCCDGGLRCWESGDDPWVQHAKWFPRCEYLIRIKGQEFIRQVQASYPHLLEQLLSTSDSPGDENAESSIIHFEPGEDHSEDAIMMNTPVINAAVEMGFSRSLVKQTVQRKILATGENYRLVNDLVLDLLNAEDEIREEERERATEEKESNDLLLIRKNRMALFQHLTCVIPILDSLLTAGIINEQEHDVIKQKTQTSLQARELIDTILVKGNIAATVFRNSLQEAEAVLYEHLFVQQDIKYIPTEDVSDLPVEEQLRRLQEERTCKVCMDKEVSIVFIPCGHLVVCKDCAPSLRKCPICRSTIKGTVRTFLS
T2 sequence (Q96SW2 whole entry, looked up): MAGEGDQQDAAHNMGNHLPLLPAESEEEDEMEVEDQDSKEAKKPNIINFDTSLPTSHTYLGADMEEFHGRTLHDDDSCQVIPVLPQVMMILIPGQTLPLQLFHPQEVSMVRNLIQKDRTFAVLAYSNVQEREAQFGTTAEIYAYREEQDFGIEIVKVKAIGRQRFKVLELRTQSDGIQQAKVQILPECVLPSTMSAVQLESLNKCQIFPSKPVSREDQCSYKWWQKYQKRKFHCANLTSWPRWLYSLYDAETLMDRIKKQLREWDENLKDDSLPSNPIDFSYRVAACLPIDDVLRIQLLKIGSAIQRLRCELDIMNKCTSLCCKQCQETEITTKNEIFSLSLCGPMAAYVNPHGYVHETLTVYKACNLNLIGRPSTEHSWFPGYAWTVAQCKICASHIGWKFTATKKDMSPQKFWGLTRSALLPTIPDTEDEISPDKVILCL

[3] = target: T2, Protein cereblon/Baculoviral IAP repeat-containing protein 3 (Homo sapiens); assay: PROTAC activity at CRBN/cIAP2 in human MCF7 cells assessed as induction of cIAP2 degradation at 0.1 to 10 uM measured after 18 hrs by western blot analysis; format: cell-based; conditions: dose 0.1-10 µM
[4] = target: Protein cereblon (Homo sapiens) (UniProt Q96SW2); assay: Induction of CRBN degradation in human MCF7 cells by western blot analysis; format: cell-based
Chain of Protein cereblon (Homo sapiens) (Q96SW2 whole entry): as the sequence (Q96SW2 whole entry, looked up) above

[5] = target: T1, Protein cereblon/E3 ubiquitin-protein ligase XIAP (Homo sapiens); assay: PROTAC activity at CRBN/XIAP in human MCF7 cells assessed as induction of XIAP degradation at 0.1 uM measured within 1 hr by western blot analysis; format: cell-based
[6] = target: T2, Protein cereblon/Baculoviral IAP repeat-containing protein 3 (Homo sapiens); assay: PROTAC activity at CRBN/cIAP2 in human MCF7 cells assessed as induction of cIAP2 degradation at 0.1 uM measured within 1 hr by western blot analysis; format: cell-based
[7] = target: Baculoviral IAP repeat-containing protein 2 (Homo sapiens) (UniProt Q13490); assay: Induction of cIAP1 degradation in human MCF7 cells at 1 uM measured after 6 hrs in presence of proteasome inhibitor, MG132 by western blot analysis; format: cell-based
Chain of Baculoviral IAP repeat-containing protein 2 (Homo sapiens) (Q13490 whole entry): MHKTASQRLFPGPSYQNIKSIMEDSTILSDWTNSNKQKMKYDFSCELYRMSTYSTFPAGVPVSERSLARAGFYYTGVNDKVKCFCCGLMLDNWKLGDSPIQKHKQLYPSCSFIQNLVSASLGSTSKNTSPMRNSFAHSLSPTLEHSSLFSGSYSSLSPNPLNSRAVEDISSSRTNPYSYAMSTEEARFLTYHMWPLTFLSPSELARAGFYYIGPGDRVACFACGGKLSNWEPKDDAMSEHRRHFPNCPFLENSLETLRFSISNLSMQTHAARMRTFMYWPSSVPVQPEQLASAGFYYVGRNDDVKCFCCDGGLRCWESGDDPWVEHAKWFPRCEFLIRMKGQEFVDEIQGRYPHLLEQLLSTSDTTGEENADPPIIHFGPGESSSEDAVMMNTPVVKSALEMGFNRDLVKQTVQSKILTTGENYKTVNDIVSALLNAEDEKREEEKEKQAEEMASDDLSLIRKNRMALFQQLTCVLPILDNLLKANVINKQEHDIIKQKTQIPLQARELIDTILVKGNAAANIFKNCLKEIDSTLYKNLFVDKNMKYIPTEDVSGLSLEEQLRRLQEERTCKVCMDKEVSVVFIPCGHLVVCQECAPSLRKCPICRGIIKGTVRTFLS

[8] = target: T2, Protein cereblon/Baculoviral IAP repeat-containing protein 3 (Homo sapiens); assay: PROTAC activity at CRBN/cIAP2 in human MCF7 cells assessed as induction of cIAP2 degradation at 1 uM measured after 6 hrs in presence of proteasome inhibitor, MG132 by western blot analysis; format: cell-based
[9] = target: T1, Protein cereblon/E3 ubiquitin-protein ligase XIAP (Homo sapiens); assay: PROTAC activity at CRBN/XIAP in human MCF7 cells assessed as induction of XIAP degradation at 1 uM measured after 6 hrs in presence of proteasome inhibitor, MG132 by western blot analysis; format: cell-based
[10] = target: Baculoviral IAP repeat-containing protein 3 (Homo sapiens) (UniProt Q13489); assay: Induction of […] degradation in human MCF7 cells transfected with CRBN siRNA at 0.01 to 1 uM measured after 18 hrs by western blot analysis; format: cell-based; conditions: dose 0.01-1 µM
Chain of Baculoviral IAP repeat-containing protein 3 (Homo sapiens) (Q13489 whole entry): as the sequence (Q13489 whole entry, looked up) above

[11] = target: E3 ubiquitin-protein ligase XIAP (Homo sapiens) (UniProt P98170); assay: Induction of XIAP degradation in human MCF7 cells transfected with CRBN siRNA at 0.01 to 1 uM measured after 18 hrs by western blot analysis; format: cell-based; conditions: dose 0.01-1 µM
Chain of E3 ubiquitin-protein ligase XIAP (Homo sapiens) (P98170 whole entry): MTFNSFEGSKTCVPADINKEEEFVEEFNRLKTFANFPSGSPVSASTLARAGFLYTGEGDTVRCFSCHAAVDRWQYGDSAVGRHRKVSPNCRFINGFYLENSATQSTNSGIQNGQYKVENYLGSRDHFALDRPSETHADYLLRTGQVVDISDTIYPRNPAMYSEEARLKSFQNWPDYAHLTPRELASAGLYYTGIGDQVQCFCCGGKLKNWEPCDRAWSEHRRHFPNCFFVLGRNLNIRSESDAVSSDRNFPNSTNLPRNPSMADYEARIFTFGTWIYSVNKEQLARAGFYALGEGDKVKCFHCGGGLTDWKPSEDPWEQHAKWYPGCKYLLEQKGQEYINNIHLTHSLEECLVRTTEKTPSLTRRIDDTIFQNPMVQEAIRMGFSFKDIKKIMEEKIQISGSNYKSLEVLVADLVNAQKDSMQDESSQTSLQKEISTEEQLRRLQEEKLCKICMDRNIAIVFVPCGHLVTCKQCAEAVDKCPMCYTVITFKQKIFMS

[12] = target: T2, Protein cereblon/Baculoviral IAP repeat-containing protein 3 (Homo sapiens); assay: Binding affinity to CRBN/cIAP2 in human HEK293T cells assessed as ternary complex formation at 1 uM measured after 6 hrs by immunoprecipitation analysis; format: cell-based
[13] = target: T1, Protein cereblon/E3 ubiquitin-protein ligase XIAP (Homo sapiens); assay: Binding affinity to CRBN/XIAP in human HEK293T cells assessed as ternary complex formation at 1 uM measured after 6 hrs by immunoprecipitation analysis; format: cell-based
[14] = target: Baculoviral IAP repeat-containing protein 2 (Homo sapiens) (UniProt Q13490); assay: Induction of cIAP1 degradation in human MCF7 cells assessed as protein abundance at 1 uM measured after 4 hrs by TMT-labeling based LC-MS/MS analysis; format: cell-based
[15] = target: T2, Protein cereblon/Baculoviral IAP repeat-containing protein 3 (Homo sapiens); assay: PROTAC activity at CRBN/cIAP2 in human MCF7 cells at 1 uM measured after 4 hrs by TMT-labeling based LC-MS/MS analysis; format: cell-based
[16] = system: MCF7; assay: Induction of apoptosis in human MCF7 cells assessed as increase in caspase 3/7 activity at 0.01 to 1 uM measured after 18 hrs by Caspase-Glo reagent based luminescence analysis; format: functional, cell-based; conditions: dose 0.01-1 µM
[17] = system: MCF7; assay: Induction of apoptosis in human MCF7 cells assessed as increase in total apoptotic cells at 1 uM measured after 48 hrs by AnnexinV-FITC/PI staining based flow cytometry; format: functional
[18] = system: SK-OV-3; assay: Cytotoxicity against human SK-OV-3 cells assessed as inhibition of cell growth measured after 72 hrs by CellTiter-Glo luminescent assay; format: functional, cell-based
[19] = system: MCF7; assay: Cytotoxicity against human MCF7 cells assessed as reduction in cell viability at 1 uM measured after 24 hrs in presence of TNF-alpha by CellTiter-Glo luminescent assay; format: functional, cell-based
[20] = system: MCF7; assay: Induction of apoptosis in human MCF7 cells assessed as increase in PARP cleavage at 1 uM measured after 6 hrs in presence of TNF-alpha by western blot analysis; format: functional, cell-based
[21] = target: T3, Protein cereblon-IAP (Homo sapiens) (UniProt P98170+Q13489+Q13490+Q96SW2); assay: PROTAC activity at CRBN/IAP in human MCF7 cells assessed as inhibition of TNFalpha-induced NFkappaB activation by measuring decrease in IKKalpha/beta phosphorylation at 0.1 uM pretreated for 2 hrs followed by stimulation with TNF-alpha for 3 mins by western blot analysis; format: cell-based; conditions: time 123.0 min
T3 sequence (P98170 whole entry, looked up): as the sequence (P98170 whole entry) above
T3 sequence (Q13489 whole entry, looked up): as the sequence (Q13489 whole entry, looked up) above
T3 sequence (Q13490 whole entry, looked up): as the sequence (Q13490 whole entry) above
T3 sequence (Q96SW2 whole entry, looked up): as the sequence (Q96SW2 whole entry, looked up) above

[22] = target: T3, Protein cereblon-IAP (Homo sapiens); assay: PROTAC activity at CRBN/IAP in human MCF7 cells assessed as inhibition of TNFalpha-induced NFkappaB activation by measuring decrease in IkBalpha phosphorylation at 0.1 uM pretreated for 2 hrs followed by stimulation with TNF-alpha for 3 mins by western blot analysis; format: cell-based; conditions: time 123.0 min
[23] = target: T3, Protein cereblon-IAP (Homo sapiens); assay: PROTAC activity at CRBN/IAP in human MCF7 cells assessed as inhibition of TNFalpha-induced NFkappaB activation by measuring decrease in p65 phosphorylation at 0.1 uM pretreated for 2 hrs followed by stimulation with TNF-alpha for 3 mins by western blot analysis; format: cell-based; conditions: time 123.0 min
[24] = system: MCF7; assay: Inhibition of TNFalpha-induced cytokine secretion in human MCF7 cells assessed as decrease in TNFalpha level at 0.1 uM measured after 4 hrs by ELISA; format: functional, cell-based
[25] = system: MCF7; assay: Inhibition of TNFalpha-induced cytokine secretion in human MCF7 cells assessed as decrease in IL-6 level at 0.1 uM measured after 4 hrs by ELISA; format: functional, cell-based
[26] = system: MCF7; assay: Inhibition of TNFalpha-induced cytokine mRNA expression in human MCF7 cells assessed as decrease in TNF-alpha mRNA level by quantitative real-time PCR analysis; format: functional, cell-based
[27] = system: MDA-MB-231; assay: Inhibition of TNFalpha-induced cell migration in human MDA-MB-231 cells at 0.1 uM measured after 24 hrs in presence of TNFalpha by transwell assay; format: functional, cell-based
[28] = system: MDA-MB-231; assay: Inhibition of TNFalpha-induced cell invasion in human MDA-MB-231 cells at 0.1 uM measured after 24 hrs in presence of TNFalpha by transwell assay; format: functional, cell-based
[29] = system: MDA-MB-157; assay: Inhibition of TNFalpha-induced cell migration in human MDA-MB-157 cells at 0.1 uM measured after 24 hrs in presence of TNFalpha by transwell assay; format: functional, cell-based
[30] = system: MDA-MB-157; assay: Inhibition of TNFalpha-induced cell invasion in human MDA-MB-157 cells at 0.1 uM measured after 24 hrs in presence of TNFalpha by transwell assay; format: functional, cell-based
[31] = system: MCF7; assay: Inhibition of TNFalpha-induced E-cadherin protein expression in human MCF7 cells by western blot analysis; format: functional, cell-based
[32] = system: MCF7; assay: Inhibition of TNFalpha-induced vimentin protein expression in human MCF7 cells by western blot analysis; format: functional, cell-based

T1 sequence (P98170 whole entry, looked up): as the sequence (P98170 whole entry) above
T1 sequence (Q96SW2 whole entry, looked up): as the sequence (Q96SW2 whole entry, looked up) above

Activity [1]: 99% | Activity [2]: 90% | Activity [3]: Active | Activity [4]: inactive | Activity [5]: > 90% | Activity [6]: > 90% | Activity [7]: inactive | Activity [8]: inactive | Activity [9]: inactive | Activity [10]: inactive | Activity [11]: inactive | Activity [12]: Active | Activity [13]: Active | fold change (FC) [14]: > 2 | Activity [15]: Active | Activity [21]: Active | Activity [22]: Active | Activity [23]: Active
SMILES: CN[C@@H](C)C(=O)N[C@H](C(=O)N1Cc2cc(OCCCCCCCCNC(=O)C3CN(c4ccc5c(c4)C(=O)N(C4CCC(=O)NC4=O)C5=O)C3)ccc2C[C@H]1C(=O)N[C@@H]1CCCc2ccccc21)C(C)(C)C (some centres not stated)
Activity [16]: Active | Activity [17]: 46% | Activity [18]: Active | Activity [19]: Active | Activity [20]: Active | inhibition [24]: Active | inhibition [25]: Active | inhibition [26]: Active | inhibition [27]: Active | inhibition [28]: Active | inhibition [29]: Active | inhibition [30]: Active | inhibition [31]: Active | inhibition [32]: Active

From ChEMBL document CHEMBL5344409, “Discovery of pan-IAP degraders via a CRBN recruiting mechanism” (2023)
